According to publication PMC9775471, “Anticancer Activity of Thiophene Carboxamide Derivatives as CA-4 Biomimetics: Synthesis, Biological Potency, 3D Spheroid Model, and Molecular Dynamics Simulation” (Biomimetics, 2022):
Values after ≈ are worked out from the molar mass of the structure shown. Where two headings read alike, the source gives them in different places.

Key:
Hep3B liver cancer cells = assay: Hepatocellular carcinoma spheroids formation test (3D); format: cell-based; conditions: 24 h; for Effect on Hep3B spheroid formation: 17 μg/mL, compared to non-treated cells
Experimental: Hep3B liver cancer cells (4 × 10^3 per well) were seeded in round-bottomed supra-low attachment well plates over 24 h in the presence of 2b or 2e (17 μg/mL). Doxorubicin, a chemotherapeutic medication, was used as a positive control (100 μg/mL). Images of the formed spheroids/clusters were captured at 0 h and 24 h using an inverted microscope with a final magnification of 100×. The photographs of the spheroids were assessed and quantified using ImageJ software.

[1] = tested on: CaCo-2 (colorectal adenocarcinoma) cells; assay: MTS cytotoxicity assay, CaCo-2; format: cell-based; conditions: Homo sapiens, concentrations 1, 10, 50, 100, 300 µM, mean ± SD
Experimental: (§1) Several tumor cell lines were used in this study including HeLa (cervical adenocarcinoma) HepG2, and Hep3B (HCC); B16F1 (melanoma); MCF-7 (breast carcinoma); Colo205 (colon adenocarcinoma); and CaCo-2 (colorectal adenocarcinoma), in addition to two normal cell lines LX-2 (human hepatic stellate) and Hek293t (kidney cell lines). All evaluated cells were incubated in RPMI-1640 medium and supplemented by 1% of Penicillin/Streptomycin antibiotics, 1% of l-glutamine, and 10% fetal bovine serum. The selected cells were cultivated at 37 °C in a wet environment containing 5% CO2.. In a 96-well plate, the seeding of cells was conducted as 2.5 × 10^4 cells per well. After 72 hr, the cells were confluent, the media was refreshed, and after that, all cells were incubated by several compounds’ concentrations (1, 10, 50, 100, and 300 µM). The viability of cells was investigated by the Cell Tilter 96® Aqueous One Solution Cell Proliferation (MTS) assay regarding the manufacturer’s instructions (Promega Corporation, Madison, WI). In the last step, 20 μL of MTS per 100 μL of media were added to each well and kept at 37 °C; after that at 490 nm wavelength the absorbance was collected.

[2] = tested on: MCF-7 (breast carcinoma) cells; assay: MTS cytotoxicity assay, MCF-7; format: cell-based; conditions: Homo sapiens, MCF7, concentrations 1, 10, 50, 100, 300 µM, mean ± SD
Experimental: as §1

B16F1 (melanoma) cells = assay: MTS cytotoxicity assay, B16F1; format: cell-based; conditions: Mus musculus, B16-F1, concentrations 1, 10, 50, 100, 300 µM, mean ± SD
Experimental: as §1

[3] = tested on: LX-2 (human hepatic stellate) cells; assay: MTS cytotoxicity assay, normal cell line LX-2; format: cell-based; conditions: concentrations 1, 10, 50, 100, 300 µM
Experimental: as §1

[4] = tested on: Colo205 (colon adenocarcinoma) cells; assay: MTS cytotoxicity assay, Colo205; format: cell-based; conditions: Homo sapiens, COLO 205, concentrations 1, 10, 50, 100, 300 µM, mean ± SD
Experimental: as §1

HepG2 (HCC) cells = assay: MTS cytotoxicity assay, HepG2; format: cell-based; conditions: Homo sapiens, concentrations 1, 10, 50, 100, 300 µM, mean ± SD
Experimental: as §1

[5] = tested on: Hek293t (kidney cell lines); assay: MTS cytotoxicity assay, normal cell line Hek293t; format: cell-based; conditions: Homo sapiens, HEK-293T, concentrations 1, 10, 50, 100, 300 µM, mean ± SD
Experimental: as §1

[6] = tested on: HeLa (cervical adenocarcinoma) cells; assay: MTS cytotoxicity assay, HeLa; format: cell-based; conditions: Homo sapiens, concentrations 1, 10, 50, 100, 300 µM, mean ± SD
Experimental: as §1

Hep3B (HCC) cells = assay: MTS cytotoxicity assay, Hep3B; format: cell-based; conditions: Homo sapiens, concentrations 1, 10, 50, 100, 300 µM, mean ± SD
Experimental: as §1

Hep3B (HCC) [7] = tested on: Hep3B (HCC); parameters: method as in PMID 33763478; conditions: cited from earlier work
Hep3B (HCC) [8] = conditions: cited from earlier work
[9] = cited from earlier work
[10] = cited from earlier work; remark: listed apart in the source
[11] = cited from earlier work; remark: listed apart in the source

Row | Compound | melting point | Effect on Hep3B spheroid formation (positive control) (Hep3B liver cancer cells; 100 μg/mL) | IC50 [1] | IC50 [2] | IC50 (B16F1 (melanoma) cells) | IC50 [3] | IC50 [4] | IC50 (HepG2 (HCC) cells) | IC50 [5] | IC50 [6] | IC50 (Hep3B (HCC) cells) | Cell cycle effect (Hep3B (HCC) [7]) | IC50 against Hep3B (Hep3B (HCC) [8]; earlier isoxazole-carboxamide series, ortho halogen) | IC50 against Hep3B (Hep3B (HCC) [8]; earlier series with two halogens at ortho positions) | Effect on Hep3B spheroid formation (Hep3B liver cancer cells) | Water solubility [9] | Chemical stability [10] | Plasma half-life [11] | IC50 against Hep3B (Hep3B (HCC) [8]; earlier fluorophenyl-isoxazole series, para halogen)
1 | COc1cccc2c1C(=O)c1c(O)c3c(c(O)c1C2=O)C[C@@](O)(C(=O)CO)C[C@@H]3O[C@H]1C[C@H](N)[C@H](O)[C@H](C)O1 [DOX, Doxorubicin, reference compound] |  | no recognized sphere formation | < 1 µM | < 1 µM | < 1 µM | < 1 µM | < 1 µM | 1.6 ± 0.67 µM | 1.24 ± 0.87 µM | 1.55 ± 1.35 µM | 1.21 ± 1 µM |  |  |  |  |  |  |  | 
2 | COc1ccc(OC)c(NC(=O)c2c(-c3ccccc3Cl)noc2C)c1 [St.1, 3-(2-chlorophenyl)-N-(2,5-dimethoxyphenyl)-5-methylisoxazole-4-carboxamide] |  |  |  |  |  |  |  |  |  |  |  | cell cycle arrest in the G2/M phase | 23 µg/mL (≈ 61.7 µM) |  |  |  |  |  | 
3 | Cc1onc(-c2c(F)cccc2Cl)c1C(=O)Nc1ccc(C(C)(C)C)cc1 [St.3, N-(4-(tert-butyl)phenyl)-3-(2-chloro-6-fluorophenyl)-5-methylisoxazole-4-carboxamide] |  |  |  |  |  |  |  |  |  |  |  |  |  | 2.77 µg/mL (≈ 7.16 µM) |  |  |  |  | 
4 | COc1ccc(/C=C\c2cc(OC)c(OC)c(OC)c2)cc1O [CA-4, Combretastatin A-4] |  |  |  |  |  |  |  |  |  |  |  |  |  |  |  | poor | chemical instability | short | 
5 | COc1ccc(NC(=O)c2c(-c3ccc(F)cc3)noc2C)cc1OC [St.2, N-(3,4-dimethoxyphenyl)-3-(4-fluorophenyl)-5-methylisoxazole-4-carboxamide] |  |  |  |  |  |  |  |  |  |  |  |  |  |  |  |  |  |  | 7.66 µg/mL (≈ 21.5 µM)

Further lines, with some results ahead:

Row | melting point | Compound | Effect on Hep3B spheroid formation (positive control) (Hep3B liver cancer cells; 100 μg/mL) | IC50 [1] | IC50 [2] | IC50 (B16F1 (melanoma) cells) | IC50 [3] | IC50 [4] | IC50 (HepG2 (HCC) cells) | IC50 [5] | IC50 [6] | IC50 (Hep3B (HCC) cells) | Cell cycle effect (Hep3B (HCC) [7]) | IC50 against Hep3B (Hep3B (HCC) [8]; earlier isoxazole-carboxamide series, ortho halogen) | IC50 against Hep3B (Hep3B (HCC) [8]; earlier series with two halogens at ortho positions) | Effect on Hep3B spheroid formation (Hep3B liver cancer cells) | Water solubility [9] | Chemical stability [10] | Plasma half-life [11] | IC50 against Hep3B (Hep3B (HCC) [8]; earlier fluorophenyl-isoxazole series, para halogen)
6 | 185.5 to 187.5 °C | COc1cc(NC(=O)c2ccc(-c3ccc(F)cc3)s2)c(OC)cc1Cl [2e, N-(4-chloro-2,5-dimethoxyphenyl)-5-(4-flurophenyl)thiophene-2-carboxamide] |  | 82.9 ± 2.45 µM | 42.5 ± 2.59 µM | 112 ± 1.99 µM | > 300 µM | 74.8 ± 1.45 µM | 18.2 ± 0.78 µM | 105 ± 1.08 µM | 39.6 ± 1.88 µM | 12.6 ± 2.57 µM |  |  |  | inhibited spheroid formation |  |  |  | 
7 | 190.8 to 192 °C | COc1cc(NC(=O)c2ccc(-c3ccc(F)cc3)s2)cc(OC)c1OC [2b, 5-(4-fluorophenyl)-N-(3,4,5-trimethoxyphenyl) thiophene-2-carboxamide] |  | > 300 µM | 29.7 ± 2.74 µM | > 300 µM | > 300 µM | 35.1 ± 2.05 µM | > 300 µM | 278.1 ± 2.75 µM | 205 µM | 5.46 ± 1.47 µM |  |  |  | significantly smaller spheroid |  |  |  | 
8 | 218.5 to 220.4 °C | CC(C)(C)c1ccc(NC(=O)c2ccc(-c3ccc(F)cc3)s2)cc1 [2c, N-(4-(tert-butyl)phenyl)-5-(4-fluorophenyl) thiophene-2-carboxamide] |  | > 300 µM | > 300 µM | > 300 µM | > 300 µM | > 300 µM | > 300 µM | > 300 µM | > 300 µM | 189 ± 2.78 µM |  |  |  |  |  |  |  | 
9 | 156.5 to 157 °C | COc1cc(NC(=O)c2ccc(-c3ccc(F)cc3)s2)cc(OC)c1 [2d, N-(3,5-dimethoxyphenyl)-5-(4-fluorophenyl) thiophene-2-carboxamide] |  | > 300 µM | > 300 µM | > 300 µM | > 300 µM | > 300 µM | > 300 µM | > 300 µM | > 300 µM | 8.85 ± 1.45 µM |  |  |  |  |  |  |  | 
10 | 203.5 to 205 °C | O=C(Nc1ccccc1)c1ccc(-c2ccc(F)cc2)s1 [2a, 5-(4-fluorophenyl)-N-phenylthiophene-2-carboxamide] |  | > 300 µM | > 300 µM | > 300 µM | > 300 µM | > 300 µM | 283.7 ± 1.79 µM | > 300 µM | > 300 µM | 28 ± 2.05 µM |  |  |  |  |  |  |  | 
